Test results reported in patent US20210138090A1, “uPAR targeting peptide for use in peroperative optical imaging of invasive cancer” (FLUOGUIDE A/S, priority 2014, published 2021).
Square brackets hold non-standard residues; d marks the D form. Primed or numbered codes have the meaning given here. Peptide text beside a SMILES is read from it. * marks the point of attachment. ξ: configuration not given here. X1 = CC1(C)C(/C=C/C=C/C=C/C=C2\N(CCCCCC(=O)*)c3ccc4ccccc4c3C2(C)C)=[N+](CCCCS(=O)(=O)[O-])c2ccc3ccccc3c21; Cha = N[C@@H](CC1CCCCC1)C(=O)O; IRDye800CW′ = not defined here; ξR = N=C(N)NCCCC(N)C(=O)O; ξF = NC(Cc1ccccc1)C(=O)O; ξE = NC(CCC(=O)O)C(=O)O; ξD = NC(CC(=O)O)C(=O)O; AEEA = NCCOCCOCC(=O)O; ξS = NC(CO)C(=O)O

Key:
[1] = target: purified uPAR (Homo sapiens, UniProt Q03405); assay: binding affinity towards purified uPAR (first example)
Chain of purified uPAR (Q03405 23-305): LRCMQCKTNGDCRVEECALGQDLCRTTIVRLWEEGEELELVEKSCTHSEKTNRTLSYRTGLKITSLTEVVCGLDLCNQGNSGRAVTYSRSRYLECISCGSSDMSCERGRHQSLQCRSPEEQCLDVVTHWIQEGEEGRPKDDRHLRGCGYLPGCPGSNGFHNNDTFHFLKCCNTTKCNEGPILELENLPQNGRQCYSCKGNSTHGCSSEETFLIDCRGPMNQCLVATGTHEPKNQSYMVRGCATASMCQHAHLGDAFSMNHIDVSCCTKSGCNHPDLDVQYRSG

[2] = target: uPAR H47C-N259C (Homo sapiens, UniProt Q03405, H69C/N281C); assay: SPR inhibition of uPAR binding to immobilized uPA, constrained uPAR variant (negative control); settings: SPR, constrained uPAR variant, negative control; read-out: IC50 uPAR H47C-N259C
Chain of uPAR H47C-N259C (Q03405 23-305 H69C/N281C limits assumed): as the sequence (Q03405 23-305) above, with H47C, N259C counted along it
Method: (§1) Covalent immobilization of purified human prouPA^S356A—was accomplished by injecting 12.5 μg/ml protein dissolved in 10 mM sodium acetate (pH 5.0) over a CM5 chip that had been pre-activated with NHS/EDC (N-ethyl-N′-[3-[…])propyl]-carbodiimide), aiming at a surface density of >5000 resonance units (RU) corresponding to 100 fmols/mm^2. After coupling the sensorchip was deactivated with 1 M ethanolamine. Binding of purified human uPAR as analyte was measured from 4 nM to 0.25 nM at 20° C. using 10 mM HEPES, 150 mM NaCl, 3 mM EDTA (pH 7.4) containing 0.05% (v/v) surfactant P20 as running buffer at a flow rate of 50 μl/min. In between cycles the sensorchip was regenerated by two consecutive 10-μl injections of 0.1 M acetic acid/HCl (pH 2.5) in 0.5 M NaCl. The inhibition of 3-fold dilutions of the compounds in question was measured for 4 nM uPAR with identical running conditions. All experiments were performed on a BiacoreT200 instrument.
(§2) For each inhibition peptide inhibition profile of uPAR binding to immobilized uPA there has been run a preceding standard curve and all calculations are based on the that standard curve.
Surface plasmon resonance (SPR) was applied to determine the […]-value of IRDye800-AE344 on the uPAR⋅uPA interaction in solution using a Biacore 3000 instrument essentially as described. In brief; pro-uPA^S356A, which is the natural ligand for uPAR. […] The analysis was carried out by measuring vobs of a fixed uPAR concentration (2 nM) incubated with a 3-fold dilution series of IRDye800-AE344 (ranging from 0.076 nM to 1.5 μM) for 300 sec at 20° C. with a flow rate of 50 μL/min. A standard curve was measured in parallel (2-fold dilution of uPAR covering 0.06 nM to 2 nM) including one repeated concentration point at the end to validate the biological integrity of the sensor chip. […] The parent nonamer peptide antagonist AE105 (Asp-Cha-Phe-D-Ser-D-Arg-Tyr-Leu-Trp-Ser-OH) was analyzed in parallel as positive control and the closed uPAR^H47C-N259C was used as negative control as its uPA binding cavity cannot accommodate AE105.

[3] = target: uPAR wt (Homo sapiens, UniProt Q03405); assay: SPR inhibition of uPAR binding to immobilized uPA
Chain of uPAR wt (Q03405 23-305 limits assumed): as the sequence (Q03405 23-305) above
Method: as §1, §2
Surface plasmon resonance (SPR) was applied to determine the […]-value of IRDye800-AE344 on the uPAR⋅uPA interaction in solution using a Biacore 3000 instrument essentially as described. In brief; pro-uPA^S356A, which is the natural ligand for uPAR. […] The analysis was carried out by measuring vobs of a fixed uPAR concentration (2 nM) incubated with a 3-fold dilution series of IRDye800-AE344 (ranging from 0.076 nM to 1.5 μM) for 300 sec at 20° C. with a flow rate of 50 μL/min. A standard curve was measured in parallel (2-fold dilution of uPAR covering 0.06 nM to 2 nM) including one repeated concentration point at the end to validate the biological integrity of the sensor chip. Running buffer contained 10 mM HEPES, 150 mM NaCl, 3 mM EDTA and 0.05% (v/v) surfactant P20, pH 7.4. The sensor chip was regenerated with two injections of 0.1 M acetic acid, 0.5 M NaCl. The parent nonamer peptide antagonist AE105 (Asp-Cha-Phe-D-Ser-D-Arg-Tyr-Leu-Trp-Ser-OH) was analyzed in parallel as positive control and the closed uPAR^H47C-N259C was used as negative control as its uPA binding cavity cannot accommodate AE105.

[4] = tested on: U87MG tumours; assay: optical imaging of U87MG tumour-bearing mice, IVIS Lumina XR; type: in vivo; settings: 10 nmol i.v., 15 hr post injection; for max radiance for the tumors / tumor-to-background (TBR) ratio: IVIS Lumina XR; for tumor-to-background (TBR) ratio: n=10
Method: (§3) All animal experiments were performed under a protocol approved by the Animal Research Committee of the Danish Ministry of Justice. 5*10^6 U87MG cells were suspended in 200 μl PBS and inoculated on both flanks of the mouse. When the tumours reached an appropriate size the mice were imaged with AE105-Glu-Glu-ICG.
The mice were injected with 10 nmol of AE105-Glu-Glu-ICG or ICG i.v., and imaged 15 hr post injection. Before scan the mice were anaesthetized with 2% isofluran and positioned in a prone position. For imaging the IVIS Lumina XR and the acquisition software Living Image were used. The excitation filter was set to 710 nm and the emission filter was set in the ICG position. Acquisition was set to auto-settings to achieve the best acquisition as possible.
(§4) The TBR values were calculated by drawing a ROI over each tumor and place the background ROI in an area with constant background signal.

[5] = tested on: U87MG tumours; assay: optical imaging of U87MG tumour-bearing mice, Fluobeam camera; type: in vivo; settings: 10 nmol i.v.
Method: as §3
After imaging with IVIS Lumina XR the mouse was moved to a Fluobeam setup and imaged with appropriate acquisition time.
as §4

[6] = comparison of fluorescence intensity of ICG and ICG-Glu-Glu-AE105; type: physicochemical; settings: data not shown
[7] = tested on: orthotopic GBM (U-87 MG-luc2 cells); assay: in vivo binding specificity in orthotopic GBM (blocking with AE120, scrambled probe); parameters: species or system mice; settings: 3 nmol, 1 h, no blocking
Method: The target specificity to uPAR was evaluated by two different methods: competitive blocking with the uPAR targeting peptide AE120 ((DChaFsrYLWSG)2-βAK) and IRDye800 conjugated to a scrambled peptide, AE354 (IRDye800CW-Glu-Glu-NH—CH2—CH2—O—CH2—CH2—O—CH2—CO—NH—CH2—CH2—O—CH2—CH2—O—CH2—CO-Asp-Cha-Glu-(D)Ser-(D)Arg-Tyr-Leu-Glu-Ser-OH) with similar peptide length as the active peptide. The competitive blocking dose of 1.4-2.8 mg AE120 was injected intraperitoneally 15-30 min prior to intravenous injection of 3 nmol IRDye800CW-AE344 and imaged at 1 h (n=5). The scrambled peptide was administered at 3 nmol and the animals were imaged after 1 h (n=4).
Images were analyzed and processed in ImageJ 1.52a, NIH, USA. Signal measurements were performed on the raw images generated by the Fluoptics system. Tumor signal was measured as a mean fluorescence intensity of the whole tumor and background signal was measured as the mean of a representative area with no tumor on the contralateral hemisphere. Presented pictures are contrast enhanced in ImageJ with the Contrast Enhancement (Saturated pixels: 0.3%).

## CC(C)C[C@H](NC(=O)[C@H](Cc1ccc(O)cc1)NC(=O)[C@@H](CCCNC(=N)N)NC(=O)[C@@H](CO)NC(=O)[C@H](Cc1ccccc1)NC(=O)[C@H](CC1CCCCC1)NC(=O)[C@@H](N)CC(=O)O)C(=O)N[C@@H](Cc1c[nH]c2ccccc12)C(=O)N[C@@H](CO)C(=O)O [AE105, Asp-Cha-Phe-(D)Ser-(D)Arg-Tyr-Leu-Trp-Ser-OH, reference compound]
[1]
  IC50: ~10 nM
[2]
  IC50: 4500 ± 1500 nM
[3]
  IC50: 7.8 ± 1 nM

## CC(C)C[C@H](NC(=O)[C@H](Cc1ccc(O)cc1)NC(=O)[C@@H](CCCNC(=N)N)NC(=O)[C@@H](CO)NC(=O)[C@H](Cc1ccccc1)NC(=O)[C@H](CC1CCCCC1)NC(=O)[C@H](CC(=O)O)NC(=O)COCCOCCNC(=O)COCCOCCNC(=O)[C@H](CCC(=O)O)NC(=O)[C@@H](N)CCC(=O)O)C(=O)N[C@@H](Cc1c[nH]c2ccccc12)C(=O)N[C@@H](CO)C(=O)O [AE344, Glu Glu O2Oc O2Oc Asp Cha Phe D-Ser D-Arg Tyr Leu Trp Ser-OH] (H-EE[AEEA][AEEA]D[Cha]F[dS][dR]YLWS-OH; N-terminus assumed)
[3]
  IC50: 5.7 ± 0.5 nM

## CC(C)C[C@H](NC(=O)[C@H](Cc1ccc(O)cc1)NC(=O)[C@@H](CCCNC(=N)N)NC(=O)[C@@H](CO)NC(=O)[C@H](Cc1ccccc1)NC(=O)[C@H](CC1CCCCC1)NC(=O)[C@H](CC(=O)O)NC(=O)COCCOCCNC(=O)COCCOCCNC(=O)[C@H](CCC(=O)O)NC(=O)[C@@H](N)CCC(=O)O)C(=O)N[C@@H](Cc1c[nH]c2ccccc12)C(=O)N[C@@H](CO)C(N)=O [AE345, Glu Glu O2Oc O2Oc Asp Cha Phe D-Ser D-Arg Tyr Leu Trp Ser-NH2] (H-EE[AEEA][AEEA]D[Cha]F[dS][dR]YLWS-NH2; N-terminus assumed)
[3]
  IC50: 31.8 ± 1.5 nM

## CC(C)C[C@H](NC(=O)[C@H](Cc1ccc(O)cc1)NC(=O)[C@@H](CCCNC(=N)N)NC(=O)[C@@H](CO)NC(=O)[C@H](Cc1ccccc1)NC(=O)[C@H](CC1CCCCC1)NC(=O)[C@H](CC(=O)O)NC(=O)COCCOCCNC(=O)COCCOCCN)C(=O)N[C@@H](Cc1c[nH]c2ccccc12)C(=O)N[C@@H](CO)C(=O)O [AE346, O2Oc O2Oc Asp Cha Phe D-Ser D-Arg Tyr Leu Trp Ser-OH] (H-[AEEA][AEEA]D[Cha]F[dS][dR]YLWS-OH; N-terminus assumed)
[3]
  IC50: 16.1 ± 0.9 nM

## CC(C)C[C@H](NC(=O)[C@H](Cc1ccc(O)cc1)NC(=O)[C@@H](CCCNC(=N)N)NC(=O)[C@@H](CO)NC(=O)[C@H](Cc1ccccc1)NC(=O)[C@H](CC1CCCCC1)NC(=O)[C@H](CC(=O)O)NC(=O)COCCOCCNC(=O)[C@H](CCC(=O)O)NC(=O)[C@@H](N)CCC(=O)O)C(=O)N[C@@H](Cc1c[nH]c2ccccc12)C(=O)N[C@@H](CO)C(N)=O [AE347, Glu Glu O2Oc Asp Cha Phe D-Ser D-Arg Tyr Leu Trp Ser-NH2] (H-EE[AEEA]D[Cha]F[dS][dR]YLWS-NH2; N-terminus assumed)
[3]
  IC50: 3.5 ± 0.1 nM

## CC(C)C[C@H](NC(=O)[C@H](Cc1ccc(O)cc1)NC(=O)[C@@H](CCCNC(=N)N)NC(=O)[C@@H](CO)NC(=O)[C@H](Cc1ccccc1)NC(=O)[C@H](CC1CCCCC1)NC(=O)[C@H](CC(=O)O)NC(=O)COCCOCCNC(=O)[C@@H](N)CCC(=O)O)C(=O)N[C@@H](Cc1c[nH]c2ccccc12)C(=O)N[C@@H](CO)C(N)=O [AE348, Glu O2Oc Asp Cha Phe D-Ser D-Arg Tyr Leu Trp Ser-NH2] (H-E[AEEA]D[Cha]F[dS][dR]YLWS-NH2; N-terminus assumed)
[3]
  IC50: 6.7 ± 0.2 nM

## CC(C)C[C@H](NC(=O)[C@H](Cc1ccc(O)cc1)NC(=O)[C@@H](CCCNC(=N)N)NC(=O)[C@@H](CO)NC(=O)[C@H](Cc1ccccc1)NC(=O)[C@H](CC1CCCCC1)NC(=O)[C@H](CC(=O)O)NC(=O)[C@H](CCC(=O)O)NC(=O)[C@@H](N)CCC(=O)O)C(=O)N[C@@H](Cc1c[nH]c2ccccc12)C(=O)N[C@@H](CO)C(=O)O [AE349, Glu Glu Asp Cha Phe D-Ser D-Arg Tyr Leu Trp Ser-OH] (H-EED[Cha]F[dS][dR]YLWS-OH; N-terminus assumed)
[3]
  IC50: 12.5 ± 0.6 nM

## CC1(C)C(/C=C/C=C/C=C/C=C2\N(CCCCS(=O)(=O)O)c3ccc4ccccc4c3C2(C)C)=[N+](CCCCS(=O)(=O)[O-])c2ccc3ccccc3c21 [ICG, indocyanine green, reference compound]
[4]
  uptake in the tumor: No specific uptake
  max radiance for the tumors: 7.51E+06±3.13E+05 radiance efficiency
  tumor-to-background (TBR) ratio: 1.04±0.04

## CC(C)C[C@H](NC(=O)[C@H](Cc1ccc(O)cc1)NC(=O)C(CCCNC(=N)N)NC(=O)C(CO)NC(=O)C(Cc1ccccc1)NC(=O)[C@H](CC1CCCCC1)NC(=O)C(CC(=O)O)NC(=O)C(CCC(=O)O)NC(=O)C(CCC(=O)O)NC(=O)CCCCCN1\C(=C/C=C/C=C/C=C/C2=[N+](CCCCS(=O)(=O)[O-])c3ccc4ccccc4c3C2(C)C)C(C)(C)c2c1ccc1ccccc21)C(=O)N[C@@H](Cc1c[nH]c2ccccc12)C(=O)N[C@@H](CO)C(=O)O (stereo partly drawn) [ICG-Glu-Glu-AE105] (X1-[ξE][ξE][ξD][Cha][ξF][ξS][ξR]YLWS-OH)
[1]
  IC50: ~80 nM
[2]
  IC50: 990 ± 50 nM
[5]
  TBR: 3.58±0.29
[4]
  uptake in the tumor: high uptake
  max radiance for the tumors: 3.43E+08±0.34E+08 radiance efficiency
  tumor-to-background (TBR) ratio: 3.52±0.167
[3]
  IC50: 142 ± 13 nM
[6]
  decrease in fluorescence intensity for the conjugated probe compared with ICG: 2 fold

## IRDye800CW-Glu-Glu-NH—CH2—CH2—O—CH2—CH2—O—CH2—CO—NH—CH2—CH2—O—CH2—CH2—O—CH2—CO-Asp-Cha-Glu-(D)Ser-(D)Arg-Tyr-Leu-Glu-Ser-OH ({IRDye800CW′}-EE[AEEA][AEEA]D[Cha]E[dS][dR]YLES-OH) [IRDye800CW-AE354, reference compound]
[7]
  TBR: 3.4
  normalized TBR (ref: active probe): 0.52
